The values below come from patent publication US20100144708A1, “HETEROCYCLIC COMPOUNDS CONTAINING NITROGEN ATOMS OR PHARMACEUTICALLY ACCEPTABLE SALTS THEREOF, PROCESS FOR THE PREPARATION THEREOF AND PHARMACEUTICAL COMPOSITION COMPRISING THE SAME FOR TREATMENT OF CANCER” (Korea Research Instititute of Bioscience and Biotechnology, priority 2006, published 2010).

Common to all, as to format: cell-based, Human
Experiment [1] concerns ACHN (kidney cancer). Kind of experiment: Test for inhibition of tumor cell growth (SRB), ACHN. Conditions: 48 hours, SRB staining; for GI50: Homo sapiens, ACHN. As to the method: (§1) Human tumor cell lines, PC-3 (prostate cancer, ATCC, USA), MBA-MB-231 (breast cancer, ATCC, USA), ACHN (kidney cancer, ATCC, USA), and NUGC-3 (gastric cancer, ATCC, USA) were cultured in RPMI 1640 media containing 10% fetal bovine serum (FBS).
(§2) In order to measure anticancer activity, a suitable concentration of cells in RPMI 1640 media containing 5% fetal bovine serum (about 5×10^4 cells/□) was aliquotted in 96-well plates, and cultured in 5% CO2 at 37° C. On day one after aliquoting the cells, before the cells were treated with the compounds, in order to determine their concentration, 50[…] of 50% trichloroacetic acid was added to each well of time zero (T0) plate, and cells were fixed to determine zero point. The cells treated with the compounds were fixed on each well having 50[…] of 50% trichloroacetic acid after 48 hours. The final concentrations of the test compounds were 0.01, 0.03, 0.1, 0.3, and 1[…]/□. The fixed plate was washed with water and dried, and then 100[…] of 0.4% sulphorhodamine B (SRB) dissolved in 0.1% acetic acid was added to the each well to stain the cells. The plate was allowed to stand for 30 minutes, and then washed with 0.1% acetic acid. Then, the plate was dried at room temperature, and treated with 10 mM tris base (pH 10.5) to dissolve staining reagent. An absorbance measured at 540 nm was calculated as a percentage of the control group, and then the concentration of the compound that inhibited tumor cell growth (GI50(□/□)) by 50% was determined.

For experiment [2], the system named is MBA-MB-231 (breast cancer). The experiment can be described thus: Test for inhibition of tumor cell growth (SRB), MBA-MB-231. Conditions: 48 hours, SRB staining; for GI50: Homo sapiens. The method, then: as §1, §2
For experiment [3], the system named is PC-3 (prostate cancer). The experiment can be described thus: Test for inhibition of tumor cell growth (SRB), PC-3. Conditions: 48 hours, SRB staining; for GI50: Homo sapiens, read-out: GI50 PC-3 (prostate ancer). The method, then:
as §1, §2

Experiment [4] relates to NUGC-3 (gastric cancer). Kind of experiment: Test for inhibition of tumor cell growth (SRB), NUGC-3. Conditions: 48 hours, SRB staining; for GI50: Homo sapiens, NUGC-3. As to the method: as §1, §2

On to `CCCCCCCCCCCCCCCCCCS(=O)(=O)N1CC[N+](C)(CC)CC1` [Example 59, 1-ethyl-1-methyl-4-(octadecane-1-sulfonyl)piperazin-1-ium iodide], for which the concentration for 50% growth inhibition (GI50) in experiment [1] stood at 1.07 µg/mL; in experiment [2], 2.05 µg/mL; in experiment [3] it was 0.84 µg/mL; in experiment [4] it was 0.66 µg/mL.
With `CCCCCCCCCCS(=O)(=O)N1CC[N+](CC)(Cc2cccc([N+](=O)[O-])c2)CC1` [Example 91, 4-(decane-1-sulfonyl)-1-ethyl-1-(3-nitrobenzyl)piperazin-1-ium bromide], the GI50 in experiment [1] is 4.82 µg/mL; in experiment [2], > 10 µg/mL; in experiment [3], 0.83 µg/mL; in experiment [4] it was 1.54 µg/mL.
The like results for `CCCCCCCCCCCCS(=O)(=O)N1CC[N+](CC)(Cc2cccc([N+](=O)[O-])c2)CC1` [Example 98, 4-(dodecane-1-sulfonyl)-1-ethyl-1-(3-nitrobenzyl)piperazin-1-ium bromide] were, in that order, 1.05 µg/mL, 1.01 µg/mL, 0.35 µg/mL and 0.28 µg/mL.
The like results for `CCCCCCCC(=O)N1CC[N+](C)(C)CC1.[I-]` [Example 2, 1,1-dimethyl-4-octanoyl-piperazin-1-ium iodide] were, in that order, > 10 µg/mL, > 10 µg/mL, > 10 µg/mL and > 10 µg/mL.
For the compound `C=CC[N+]1(C)CCN(C(=O)CCCCCCCCC)CC1` [Example 9, 1-allyl-4-decanoyl-1-methyl-piperazin-1-ium bromide], the 50% growth inhibitory concentration (GI50) in experiment [1] is > 10 µg/mL; in experiment [2] it was > 10 µg/mL; in experiment [3] it was 1.81 µg/mL; in experiment [4], > 10 µg/mL.
For `CCCCCCCCCCCCCC(=O)N1CC[N+](C)(CC)CC1` [Example 14, 1-ethyl-1-methyl-4-tetradecanoyl-piperazin-1-ium iodide], the 50% growth inhibitory concentration (GI50) in experiment [1] was 2.37 µg/mL; in experiment [2], 2.44 µg/mL; in experiment [3] it was 0.57 µg/mL; in experiment [4], 0.54 µg/mL.
For the compound `C=CC[N+]1(CC)CCN(S(=O)(=O)CCCCCCCCCCCCCC)CC1` [Example 67, 1-allyl-1-ethyl-4-(tetradecane-1-sulfonyl)piperazin-1-ium bromide], the GI50 in experiment [1] worked out at 0.51 µg/mL; in experiment [2], 1.05 µg/mL; in experiment [3], 0.87 µg/mL; in experiment [4], 0.6 µg/mL.
Take `C=CC[N+]1(C)CCN(S(=O)(=O)CCCCCCCCCC)CC1` [Example 77, 1-allyl-4-(decane-1-sulfonyl)-1-methyl-piperazin-1-ium bromide]: the GI50 in experiment [1] was 3.47 µg/mL; in experiment [2], > 10 µg/mL; in experiment [3] it was 0.83 µg/mL; in experiment [4] it was 1.55 µg/mL.
The like results for `CCCCCCCCCCCCCCCCCCS(=O)(=O)N1CC[N+](CC)(Cc2ccc(C(C)(C)C)cc2)CC1` [Example 114, 1-(4-t-butylbenzyl)-1-ethyl-4-(octadecane-1-sulfonyl)piperazin-1-ium bromide] were, in that order, 2.32 µg/mL, 2.24 µg/mL, 2.01 µg/mL and 3.16 µg/mL.
The like results for `C=CC[N+]1(C)CCN(C(=O)CCCCCCCCCCCCCCCCCCCCCCC)CC1` [Example 41, 1-allyl-1-methyl-4-tetracosanoylpiperazin-1-ium bromide] were, in that order, > 10 µg/mL, > 10 µg/mL, 3.36 µg/mL and > 10 µg/mL.
The like results for `CCCCCCCCCCCCCCCCCC(=O)N1CC[N+](C)(CC)CC1` [Example 27, 1-ethyl-1-methyl-4-octadecanoyl-piperazin-1-ium iodide] were, in that order, 1.36 µg/mL, 1.43 µg/mL, 0.41 µg/mL and 0.67 µg/mL.
Regarding `CCCCCCCCCCCCCCCCCC(=O)N1CC[N+](CC)(Cc2ccccc2)CC1` [Example 28, 1-benzyl-1-ethyl-4-octadecanoyl-piperazin-1-ium bromide], the GI50 in experiment [1] was > 10 µg/mL; in experiment [2] it was > 10 µg/mL; in experiment [3], 3.64 µg/mL; in experiment [4], 5.21 µg/mL.
Turning to `CCCCCCCCCCCCCCCCCC(=O)N1CC[N+](CC)(Cc2ccc(F)cc2)CC1` [Example 48, 1-ethyl-1-(4-fluorobenzyl)-4-stearoylpiperazin-1-ium bromide], the GI50 was determined as 1.43 µg/mL in experiment [1], 1.49 µg/mL in experiment [2], 0.68 µg/mL in experiment [3] and 1.19 µg/mL in experiment [4].
Turning to “1-ethyl-1-(3-nitrobenzyl)-4-tetradecanoylpiperazin-1-him bromide [Example 56]”, the “GI50 ACHN (kidney cancer)” value in experiment [1] was 1.93 µg/mL. For the same compound, the “GI50 MBA-MB-231 (breast cancer)” value in experiment [2] turned out to be 1.13 µg/mL. The “GI50 PC-3 (prostate ancer)” value in experiment [3] is 0.52 µg/mL. In addition, the “GI50 NUGC-3 (gastric cancer)” value in experiment [4] was 1.22 µg/mL.
Turning to `CCCCCCCCCCCCCC(=O)N1CCC[N+](C)(Cc2ccc(F)cc2)CC1` (centres unmarked) [Example 133, 1-(4-fluorobenzyl)-1-methyl-4-tetradecanoyl-1,4-diazepan-1-ium bromide], the concentration for 50% growth inhibition (GI50) was 1.1 µg/mL in experiment [1], 1.48 µg/mL in experiment [2], 0.45 µg/mL in experiment [3] and 0.94 µg/mL in experiment [4].
The like results for `CCCCCCCCCCCCCCS(=O)(=O)N1CC[N+](CC)(Cc2ccccc2)CC1` [Example 113, 1-benzyl-1-ethyl-4-(tetradecane-1-sulfonyl)piperazin-1-ium bromide] were, in that order, 1.05 µg/mL, 1.23 µg/mL, 0.41 µg/mL and 1.22 µg/mL.
In the same order, the values of `CCCCCCCCCS(=O)(=O)N1CC[N+](CC)(Cc2cccc([N+](=O)[O-])c2)CC1` [Example 89, 1-ethyl-1-(3-nitrobenzyl)-4-(nonylsulfonyl)piperazin-1-ium bromide] are > 10 µg/mL, > 10 µg/mL, 4.02 µg/mL and > 10 µg/mL.
On to `CCCCCCCCCCCCCC(=O)N1CC[N+](CC)(Cc2cccc(F)c2)CC1` [Example 51, 1-ethyl-1-(3-fluorobenzyl)-4-tetradecanoylpiperazin-1-ium bromide], for which the 50% growth inhibitory concentration (GI50) was 1.85 µg/mL in experiment [1], 1.42 µg/mL in experiment [2], 0.52 µg/mL in experiment [3] and 1.05 µg/mL in experiment [4].
In the same order, the values of `CCCCCCCCCCCCCCCCCCCCCCCC(=O)N1CC[N+](C)(Cc2ccccc2)CC1` [Example 40, 1-benzyl-1-methyl-4-tetracosanoylpiperazin-1-ium bromide] are > 10 µg/mL, > 10 µg/mL, 4.79 µg/mL and > 10 µg/mL.
The like results for `CCCCCCCCCCCCCCCCCCCCCC(=O)N1CC[N+](C)(CC)CC1` [Example 34, 4-docosanoyl-1-ethyl-1-methylpiperazin-1-ium iodide] were, in that order, 1.9 µg/mL, 2.01 µg/mL, 0.85 µg/mL and 1.22 µg/mL.
In the same order, the values of `C=CC[N+]1(CC)CCN(S(=O)(=O)CCCCCCCCCCCCCCCCCC)CC1` [Example 72, 1-allyl-1-ethyl-4-(octadecane-1-sulfonyl)piperazin-1-ium bromide] are 0.71 µg/mL, 1.37 µg/mL, 0.73 µg/mL and 0.57 µg/mL.
In the case of `C=CC[N+]1(C)CCN(S(=O)(=O)CCCCCCCCCCCC)CC1` [Example 82, 1-allyl-4-(dodecane-1-sulfonyl)-1-methyl-piperazin-1-ium bromide], the 50% growth inhibitory concentration (GI50) in experiment [1] turned out to be 0.86 µg/mL; in experiment [2] it was 1.4 µg/mL; in experiment [3], 0.71 µg/mL; in experiment [4], 0.75 µg/mL.
In the case of “1-allyl-1-methyl-4-(tetradecane-1-sulfonyppiperazin-1-ium bromide [Example 69]”, in experiment [1], the “GI50 ACHN (kidney cancer)” value was found to be 0.59 µg/mL. The “GI50 MBA-MB-231 (breast cancer)” value in experiment [2] came out at 1.16 µg/mL. In addition, in experiment [3], the “GI50 PC-3 (prostate ancer)” value came out at 0.68 µg/mL. Further, the “GI50 NUGC-3 (gastric cancer)” value in experiment [4] was 0.59 µg/mL.
On to `CCCCCCCCCCCCCCCC(=O)N1CCC[N+](C)(CC)CC1` (centres unmarked) [Example 116, 1-ethyl-1-methyl-4-palmitoyl-1,4-diazepan-1-ium iodide], for which the concentration for 50% growth inhibition (GI50) in experiment [1] worked out at 0.29 µg/mL; in experiment [2] it was 0.59 µg/mL; in experiment [3], 0.36 µg/mL; in experiment [4], 0.25 µg/mL.
In the same order, the values of `C=CC[N+]1(CC)CCN(C(=O)CCCCCCCCCCCCCCCCCCCCC)CC1` [Example 38, 1-allyl-4-docosanoyl-1-ethylpiperazin-1-ium bromide] are 3.38 µg/mL, 2.53 µg/mL, 1.47 µg/mL and 1.54 µg/mL.
The like results for `CCCCCCCCCCCCCCS(=O)(=O)N1CC[N+](CC)(Cc2ccc(F)cc2)CC1` [Example 68, 1-ethyl-1-(4-fluorobenzyl)-4-(tetradecane-1-sulfonyl)piperazin-1-ium bromide] were, in that order, 1.19 µg/mL, 1.59 µg/mL, 0.71 µg/mL and 1.05 µg/mL.
